Experimental findings from patent publication US20240024291A1, “Uses of Dihydroorotate Dehydrogenase Inhibitors” (University of Maryland, Baltimore, priority 2022, published 2024) are described below.

In one assay the test system is Mayo 6. The assay can be described thus: Approved Oncology Drugs Set screen alone and combined with DHODHi. The settings on record: for Alone (growth, drug alone): Mayo 6, drug alone; for Combination (growth, drug combined with DHODHi): Mayo 6, drug combined with DHODHi (10 μM).
A further assay deals with Mayo 39 neurospheres. The assay is described as follows: Sorafenib and DHODHi combination, SynergyFinder. Format: cell-based, human. The settings on record: Mayo 39 GBMs.
For another assay, the system named is Mayo 6 neurospheres. The assay is described as follows: Sorafenib and DHODHi combination, SynergyFinder.
Assay [1] concerns EGFRviii expressing 08-387 and 913 glioblastoma cells. The assay is described as follows: Gemcitabine sensitization assay (Alamar blue). The settings on record: varying dosages of gemcitabine and 0.05 nM of compound 1. It is filed as cell-based, human. As for the experimental part:
Ten thousand 08-387 or 913 glioblastoma cells per well were seeded in a 96 well plate. […] Post 72 hr of treatment, cell viability was calculated on Alamar blue absorbance reading.
To further evaluate the potential role of EGFR in compound 1 resistance, the 913 and 08-387 neurosphere lines were transduced with lentiviruses encoding EGFRvIll or GFP (as control) and these neurospheres were challenged with a relatively high dose of 1 mM compound 1.

Turning to `C=CC(=O)Nc1cc(Nc2nccc(-c3cn(C)c4ccccc34)n2)c(OC)cc1N(C)CCN(C)C` [Osimertinib, osimertinib], in the assay on Mayo 6, the “Alone (growth, drug alone)” value is 0.35 and the “Combination (growth, drug combined with DHODHi)” value turned out to be 0.0001.
In the case of `CNC(=O)c1cc(Oc2ccc(NC(=O)Nc3ccc(Cl)c(C(F)(F)F)c3)c(F)c2)ccn1` [Regorafenib, regorafenib], in the assay on Mayo 6, the “Alone (growth, drug alone)” value worked out at 1.00 and the “Combination (growth, drug combined with DHODHi)” value worked out at 0.64.
For the molecule `CNC(=O)c1cc(Oc2ccc(NC(=O)Nc3ccc(Cl)c(C(F)(F)F)c3)cc2)ccn1` [Sorafenib], the “sensitization to DHODHi by Sorafenib” value is on record as “moderately sensitized” with Mayo 39 neurospheres and “moderately sensitized” in the assay with Mayo 6 neurospheres (Mayo 6 GBMs, SynergyFinder). Moreover, the “most synergistic area score” value in the assay with Mayo 6 neurospheres (Mayo 6, Sorafenib in combination with DHODHi) is 10.48.
On to `Nc1ccn([C@@H]2O[C@H](CO)[C@@H](O)C2(F)F)c(=O)n1` [gemcitabine, reference compound], for which the “sensitivity of glioblastomas to gemcitabine” value in assay [1] is “sensitive”.
